What was measured:
[1] = target: human α1H T-type channels (Homo sapiens, UniProt O95180); assay: T-type calcium channel block, whole cell patch clamp, α1H; assay type: cell-based; settings: HEK cells stably expressing human α1H; mainly non-inactivated protocol; values above 10,000 nM represented as 10000
Outline: (§1)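 Read-out: current block in whole-cell patch clamp of HEK 293 cells stably expressing human α1G or α1H subunits. Compounds were perfused locally in external solution (0.1-0.01% DMSO) under resting and inactivating voltage protocols.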

[2] = target: human α1G T-type channels (Homo sapiens, UniProt O43497); assay: T-type calcium channel block, whole cell patch clamp, α1G; assay type: cell-based; settings: HEK cells stably expressing human α1G; mainly non-inactivated protocol; values above 10,000 nM represented as 10000
Chain of human α1G T-type channels (O43497 whole entry): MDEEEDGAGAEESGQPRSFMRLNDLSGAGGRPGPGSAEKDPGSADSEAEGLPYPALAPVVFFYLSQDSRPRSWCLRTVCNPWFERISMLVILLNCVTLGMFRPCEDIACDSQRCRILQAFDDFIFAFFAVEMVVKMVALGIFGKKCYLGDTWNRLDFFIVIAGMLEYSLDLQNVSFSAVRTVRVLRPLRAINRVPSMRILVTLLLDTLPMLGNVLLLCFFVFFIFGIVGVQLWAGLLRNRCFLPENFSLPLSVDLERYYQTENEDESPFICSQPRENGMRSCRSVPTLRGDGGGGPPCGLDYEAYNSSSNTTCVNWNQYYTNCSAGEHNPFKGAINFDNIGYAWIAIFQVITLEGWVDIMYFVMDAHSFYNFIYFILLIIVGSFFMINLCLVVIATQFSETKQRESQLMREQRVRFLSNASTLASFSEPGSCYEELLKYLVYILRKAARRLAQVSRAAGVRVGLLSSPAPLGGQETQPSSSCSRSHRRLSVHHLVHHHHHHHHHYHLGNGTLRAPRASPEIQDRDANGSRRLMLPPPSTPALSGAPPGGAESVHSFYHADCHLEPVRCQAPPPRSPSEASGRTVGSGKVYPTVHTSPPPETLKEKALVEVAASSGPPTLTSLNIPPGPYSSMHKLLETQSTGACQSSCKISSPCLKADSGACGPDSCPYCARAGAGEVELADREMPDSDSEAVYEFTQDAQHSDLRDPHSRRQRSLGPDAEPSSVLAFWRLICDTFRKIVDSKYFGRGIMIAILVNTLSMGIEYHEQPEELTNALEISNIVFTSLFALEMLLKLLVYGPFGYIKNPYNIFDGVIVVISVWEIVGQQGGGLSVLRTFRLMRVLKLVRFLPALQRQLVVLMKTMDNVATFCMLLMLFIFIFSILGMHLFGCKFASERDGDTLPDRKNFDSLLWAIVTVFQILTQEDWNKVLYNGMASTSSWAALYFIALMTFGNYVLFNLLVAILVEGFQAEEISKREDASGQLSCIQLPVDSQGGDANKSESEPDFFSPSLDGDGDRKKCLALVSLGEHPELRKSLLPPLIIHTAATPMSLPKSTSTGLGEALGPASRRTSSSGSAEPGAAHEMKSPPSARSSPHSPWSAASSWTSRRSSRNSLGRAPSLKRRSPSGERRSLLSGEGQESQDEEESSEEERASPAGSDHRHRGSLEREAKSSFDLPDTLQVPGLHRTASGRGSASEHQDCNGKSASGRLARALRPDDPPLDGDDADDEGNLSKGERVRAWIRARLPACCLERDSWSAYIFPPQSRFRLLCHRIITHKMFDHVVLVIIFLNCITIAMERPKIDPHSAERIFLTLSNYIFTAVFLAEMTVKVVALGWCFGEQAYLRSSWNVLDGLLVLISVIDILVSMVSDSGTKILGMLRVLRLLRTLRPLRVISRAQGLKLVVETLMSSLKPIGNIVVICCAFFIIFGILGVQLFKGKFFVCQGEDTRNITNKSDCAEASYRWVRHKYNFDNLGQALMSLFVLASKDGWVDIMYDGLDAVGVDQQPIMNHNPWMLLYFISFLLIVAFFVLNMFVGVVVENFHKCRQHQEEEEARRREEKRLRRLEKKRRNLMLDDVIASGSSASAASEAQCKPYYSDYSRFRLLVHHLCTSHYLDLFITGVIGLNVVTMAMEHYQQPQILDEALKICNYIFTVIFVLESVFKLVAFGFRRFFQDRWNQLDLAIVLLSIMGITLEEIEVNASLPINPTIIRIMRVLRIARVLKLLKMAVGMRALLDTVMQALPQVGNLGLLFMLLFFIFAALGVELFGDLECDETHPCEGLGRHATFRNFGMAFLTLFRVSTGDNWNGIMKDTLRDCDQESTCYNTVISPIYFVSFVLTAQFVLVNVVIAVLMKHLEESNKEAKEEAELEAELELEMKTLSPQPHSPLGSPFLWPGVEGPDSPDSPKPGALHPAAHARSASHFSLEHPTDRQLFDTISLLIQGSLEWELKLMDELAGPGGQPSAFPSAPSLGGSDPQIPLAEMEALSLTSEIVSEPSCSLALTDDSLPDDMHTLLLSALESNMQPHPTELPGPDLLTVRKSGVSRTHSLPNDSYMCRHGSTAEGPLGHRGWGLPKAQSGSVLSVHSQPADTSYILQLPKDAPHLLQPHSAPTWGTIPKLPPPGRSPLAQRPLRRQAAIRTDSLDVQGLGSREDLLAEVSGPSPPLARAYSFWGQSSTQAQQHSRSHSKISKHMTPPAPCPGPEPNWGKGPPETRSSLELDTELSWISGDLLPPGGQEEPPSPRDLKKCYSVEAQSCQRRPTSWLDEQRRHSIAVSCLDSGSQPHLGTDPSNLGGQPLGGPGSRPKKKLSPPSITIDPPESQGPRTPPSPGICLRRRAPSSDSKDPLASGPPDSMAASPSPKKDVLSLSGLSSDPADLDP
Outline: as §1

Chain of human α1H T-type channels (O95180 whole entry, the tested form may be a part): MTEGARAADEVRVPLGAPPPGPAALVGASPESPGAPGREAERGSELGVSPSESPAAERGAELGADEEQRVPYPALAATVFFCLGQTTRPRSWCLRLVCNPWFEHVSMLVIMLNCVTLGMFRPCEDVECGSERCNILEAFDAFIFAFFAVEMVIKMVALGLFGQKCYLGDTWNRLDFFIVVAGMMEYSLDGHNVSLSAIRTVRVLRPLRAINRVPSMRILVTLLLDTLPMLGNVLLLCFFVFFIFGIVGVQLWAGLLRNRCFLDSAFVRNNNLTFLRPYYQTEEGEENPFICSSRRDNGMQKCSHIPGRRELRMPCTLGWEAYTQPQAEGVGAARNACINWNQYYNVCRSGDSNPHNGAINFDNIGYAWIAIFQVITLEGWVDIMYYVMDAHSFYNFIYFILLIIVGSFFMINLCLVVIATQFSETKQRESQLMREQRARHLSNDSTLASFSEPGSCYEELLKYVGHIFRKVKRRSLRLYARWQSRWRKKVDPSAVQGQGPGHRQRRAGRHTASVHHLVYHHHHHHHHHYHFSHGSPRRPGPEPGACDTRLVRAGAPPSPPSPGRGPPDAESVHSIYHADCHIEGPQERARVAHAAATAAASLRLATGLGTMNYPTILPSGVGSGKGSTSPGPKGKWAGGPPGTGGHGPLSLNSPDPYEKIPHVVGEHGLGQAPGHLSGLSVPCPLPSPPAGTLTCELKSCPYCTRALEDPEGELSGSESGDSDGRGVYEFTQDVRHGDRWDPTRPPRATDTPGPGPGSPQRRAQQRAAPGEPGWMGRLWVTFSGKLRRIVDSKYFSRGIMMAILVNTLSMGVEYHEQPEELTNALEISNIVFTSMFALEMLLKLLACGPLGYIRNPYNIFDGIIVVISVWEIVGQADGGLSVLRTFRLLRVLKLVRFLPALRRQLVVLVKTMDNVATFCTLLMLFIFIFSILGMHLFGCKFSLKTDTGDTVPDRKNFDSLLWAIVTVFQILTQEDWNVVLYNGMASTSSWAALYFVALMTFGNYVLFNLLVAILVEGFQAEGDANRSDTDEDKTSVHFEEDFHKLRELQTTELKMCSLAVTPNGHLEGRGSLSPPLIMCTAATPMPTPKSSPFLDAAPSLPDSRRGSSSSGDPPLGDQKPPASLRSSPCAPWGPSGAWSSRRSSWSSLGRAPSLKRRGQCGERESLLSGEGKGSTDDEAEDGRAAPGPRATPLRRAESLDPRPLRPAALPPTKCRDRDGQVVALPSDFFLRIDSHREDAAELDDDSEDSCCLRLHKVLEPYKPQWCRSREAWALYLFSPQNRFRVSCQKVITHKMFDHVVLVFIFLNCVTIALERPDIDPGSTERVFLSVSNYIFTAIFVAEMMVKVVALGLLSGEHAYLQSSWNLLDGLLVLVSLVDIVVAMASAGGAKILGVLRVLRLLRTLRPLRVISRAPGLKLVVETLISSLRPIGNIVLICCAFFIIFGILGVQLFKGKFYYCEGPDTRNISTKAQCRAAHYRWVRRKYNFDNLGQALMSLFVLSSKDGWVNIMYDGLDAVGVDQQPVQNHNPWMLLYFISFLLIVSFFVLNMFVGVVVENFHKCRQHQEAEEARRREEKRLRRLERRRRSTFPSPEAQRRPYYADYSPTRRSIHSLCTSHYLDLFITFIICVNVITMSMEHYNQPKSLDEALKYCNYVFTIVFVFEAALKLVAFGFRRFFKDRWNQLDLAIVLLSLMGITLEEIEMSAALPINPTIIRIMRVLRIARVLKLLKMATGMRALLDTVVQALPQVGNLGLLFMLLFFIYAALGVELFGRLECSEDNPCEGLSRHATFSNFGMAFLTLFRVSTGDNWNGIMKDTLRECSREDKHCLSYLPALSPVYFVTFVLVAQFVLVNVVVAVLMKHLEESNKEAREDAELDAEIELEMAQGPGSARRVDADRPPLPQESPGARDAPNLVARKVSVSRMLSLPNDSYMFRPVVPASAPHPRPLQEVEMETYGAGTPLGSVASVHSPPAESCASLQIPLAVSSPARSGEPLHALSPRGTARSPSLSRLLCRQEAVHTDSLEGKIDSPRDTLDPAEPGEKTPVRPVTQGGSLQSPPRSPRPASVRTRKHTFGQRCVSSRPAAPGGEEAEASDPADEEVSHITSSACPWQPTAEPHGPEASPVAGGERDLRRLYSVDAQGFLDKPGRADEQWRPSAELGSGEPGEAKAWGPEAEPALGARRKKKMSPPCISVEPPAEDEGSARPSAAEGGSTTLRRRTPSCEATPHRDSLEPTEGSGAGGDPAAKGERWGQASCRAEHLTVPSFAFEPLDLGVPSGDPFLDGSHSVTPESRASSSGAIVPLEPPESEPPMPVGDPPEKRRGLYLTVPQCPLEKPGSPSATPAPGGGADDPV

| Compound | IC50 [1] [nM] | IC50 [2] [nM] |
| --- | --- | --- |
| O=C(N[C@H]1CC[C@H](CS(=O)(=O)c2cccc(C(F)(F)F)c2)CC1)c1cc(C(F)(F)F)n[nH]1 [Compound 112, 3-(trifluoromethyl)-N-((lR,4R)-4-((3-(trifluoromethyI)phenylsulfonyl)methyl)cyclohexyl)-1H-pyrazole-5-carboxamide] | 8360 | > 10000 |
| CC(C)(CCS(=O)(=O)c1cccc(OC(F)(F)F)c1)S(=O)(=O)c1cccc(C(F)(F)F)c1 [Compound 463, 1-(3-methyl-3-(3-(trifluoromethyl)phenylsulfonyl)butylsulfonyl)-3-(trifluoromethoxy)benzene] | > 10000 | 350 |
| CC(C)(CNS(=O)(=O)c1ccc(OC(F)(F)F)cc1)S(=O)(=O)c1cccc(C(F)(F)F)c1 [Compound 496, N-(2-methyl-2-(3-(trifluoromethyl)phenylsulfonyl)propyl)-4-(trifluoromethoxy) benzenesulfonamide] | 350 | 170 |
| CC(C)(CC(=O)Nc1ccc(Oc2ccc(F)cc2)cc1)S(=O)(=O)c1cccc(C(F)(F)F)c1 [Compound 486, N-(4-(4-fluorophenoxy)phenyl)-3-methyl-3-(3-(trifluoromethyl)phenylsulfonyl)butanamide] | 860 | 510 |
| CC(C)(CNS(=O)(=O)c1ccc2c(c1)OCO2)S(=O)(=O)c1cccc(C(F)(F)F)c1 [Compound 500, N-(2-methyl-2-(3-(trifluoromethyl)phenylsulfonyl)propyl)benzo[d] [1,3]dioxole-5-sulfonamide] | 3110 | 340 |
| Cn1nc(C(F)(F)F)cc1C(=O)NCCC(C)(C)S(=O)(=O)c1cccc(C(F)(F)F)c1 [Compound 467, 1-methyl-N-(3-methyl-3-(3-(trifluoromethyl)phenylsulfonyl)butyl)-3-(trifluoromethyl)-1H-pyrazole-5-carboxamide] | 1170 | 170 |
| CC(C)(C(=O)NCCc1ccc(Cl)c(Cl)c1)S(=O)(=O)c1cccc(C(F)(F)F)c1 [Compound 451, N-(3,4-dichlorophenethyl)-2-methyl-2-(3-(trifluoromethyl)phenylsulfonyl)propanamide] | 2410 | 260 |
| CC(C)(C(=O)Nc1ccc(Oc2ccc(F)c(Cl)c2)nc1)S(=O)(=O)c1cccc(C(F)(F)F)c1 [Compound 524, N-(6-(3-chloro-4-tluorophenoxy)pyridin-3-yl)-2-methyl-2-(3-(trifluoromethyl)phenylsulfonyl)propanamide] | 2070 | 380 |
| CN(CCc1ccc(Cl)c(Cl)c1)C(=O)C(C)(C)S(=O)(=O)c1cccc(C(F)(F)F)c1 [Compound 453, N-(3,4-dichlorophenethyl)-N,2-dimethyl-2-(3-(trifluoromethyl)phenylsulfonyl)propanamide] | 3930 | 690 |
| CN(C(=O)CNCCC(C)(C)S(=O)(=O)c1cccc(C(F)(F)F)c1)C(C)(C)C [Compound 473, N-tert-butyl-N-methyl-2-(3-methyl-3-(3-(trifluoromethyl)phenylsulfonyl)butylamino) acetamide] | 9280 | 680 |
| CC(C)(C)c1ccc(S(=O)(=O)NCC(C)(C)S(=O)(=O)c2cccc(C(F)(F)F)c2)cc1 [Compound 499, 4-tert-butyl-N-(2-methyl-2-(3-(trifluoromethyl)phenylsulfonyl)propyl) benzenesulfonamide] | 1010 | 90 |
| Cn1nc(C(F)(F)F)cc1C(=O)NCCC(C)(C)S(=O)(=O)c1cc(F)cc(C(F)(F)F)c1 [Compound 535, N-(3-(3-fluoro-5-(trifluoromethyl)phenylsulfonyl)-3-methylbutyl)-l-methyl-3-(trifluoromcthyl)-1H-pyrazole-5-carboxamide] | 4140 | 700 |
| CS(=O)(=O)c1ccc(C(=O)N[C@H]2CC[C@H](S(=O)(=O)c3cccc(C(F)(F)F)c3)CC2)c(Cl)c1 [Compound 122, 2-chloro-4-(methylsulfonyl)-N-((1R,4R)-4-(3-(trifluoromethyl)phenylsulfonyl)cyclohexyl)benzamide] | 990 | 690 |
| CN(CCC(C)(C)S(=O)(=O)c1cccc(C(F)(F)F)c1)C(=O)c1cc(C(F)(F)F)n[nH]1 [Compound 513, N-methyl-N-(3-methyl-3-(3-(trifluoromethyl)phenylsulfonyl)butyl)-3-(trifluoromethyl)-1H-pyrazole-5-carboxamide] | > 10000 | 490 |
| CC(C)(CCNC(=O)c1cc(F)cc(Cl)c1)S(=O)(=O)c1cccc(C(F)(F)F)c1 [Compound 465, 3-chloro-5-tluoro-N-(3-methyl-3-(3-(trifluoromethyl)phenylsulfonyl)butyl) benzamide] | 960 | 50 |
| CC(C)(CCNC(=O)c1cc(C(F)(F)F)nc(S(C)(=O)=O)c1)S(=O)(=O)c1cc(F)cc(C(F)(F)F)c1 [Compound 536, N-(3-(3-fluoro-5-(trifluoromethyl)phenylsulfonyl)-3-methylbutyl)-2-(methylsulfonyl)-6-(trifluoromethyl) isonicotinamide] | > 10000 | 640 |
| O=C(N[C@H]1CC[C@@](F)(S(=O)(=O)c2cccc(C(F)(F)F)c2)CC1)[C@H]1CCCCN1 [Compound 531, (R)-N-((1S,4S)-4-fluoro-4-(3-(trifluoromethyl)phenylsulfonyl)cyclohexyl) piperidine-2-carboxamide] | > 10000 | 3560 |
| CC(C)(CCNC(=O)c1cc(C(F)(F)F)nc(S(C)(=O)=O)c1)S(=O)(=O)c1cccc(C(F)(F)F)c1 [Compound 526, N-(3-methyl-3-(3-(trifluoromethyl)phenylsulfonyl)butyl)-2-(methylsulfonyl)-6-(trifluoromethyl)isonicotinamide] | 2930 | 240 |
| COc1cc(F)cc(C(=O)NCCC(C)(C)S(=O)(=O)c2cccc(C(F)(F)F)c2)c1 [Compound 464, 3-fluoro-5-methoxy-N-(3-methyl-3-(3-(trifluoromethyl)phenylsulfonyl)butyl) benzamide] | 2140 | 60 |
| CC(C)(CN[C@H]1CC[C@@H](C(F)(F)F)CC1)S(=O)(=O)c1cccc(C(F)(F)F)c1 [Compound 519, (1S,4S)-N-(2-methyl-2-(3-(trifluoromethyl)phenylsulfonyl)propyl)-4-(trifluoromethyl) cyclohexanamine] | 3280 | 550 |
| CC1(NC(=O)CNCC(C)(C)S(=O)(=O)c2cccc(C(F)(F)F)c2)CCC1 [Compound 459, 2-(2-methyl-2-(3-(trifluoromethyl)phenylsulfonyl)propylamino)-N-(l-methylcyclobutyl)acetamide] | > 10000 | 820 |

Second part, the compound after the results:

| IC50 [1] [nM] | IC50 [2] [nM] | Compound |
| --- | --- | --- |
| 910 | 710 | CC(C)(CNC(=O)c1ccc(F)c(C(F)(F)F)c1)S(=O)(=O)c1cccc(C(F)(F)F)c1 [Compound 456, 4-fluoro-N-(2-methyl-2-(3-(trifluoromethyl)phenylsulfonyl)propyl)-3-(trifluoromethyl)benzamide] |
| 6690 | 530 | CC(C)(C)c1cc(C(=O)NCC(C)(C)S(=O)(=O)c2cccc(C(F)(F)F)c2)ccn1 [Compound 484, 2-tert-butyl-N-(2-methyl-2-(3-(trifluoromethyl)phenylsulfonyl)propyl) isonicotinamide] |
| 2410 | 80 | CC(C)S(=O)(=O)c1cc(C(F)(F)F)cnc1C(=O)NCCC(C)(C)S(=O)(=O)c1cccc(C(F)(F)F)c1 [Compound 528, 3-(isopropylsulfonyl)-N-(3-methyl-3-(3-(trifluoromethyl)phenylsulfonyl)butyl)-5-(trifluoromethyl)picolinamide] |
| 5040 | 430 | CC(C)(CCNC(=O)c1ccc(C(F)(F)F)cc1S(C)(=O)=O)S(=O)(=O)c1cccc(C(F)(F)F)c1 [Compound 469, N-(3-methyl-3-(3-(trifluoromethyl)phenylsulfonyl)butyl)-2-(methylsulfonyl)-4-(trifluoromethyl)benzamide] |
| 1920 | 900 | CC(C)(C(=O)Nc1nc2cc(C(F)(F)F)ccc2[nH]1)S(=O)(=O)c1cccc(C(F)(F)F)c1 [Compound 458, 2-methyl-N-(5-(trifluoromethyl)-1H-benzo[d]imidazol-2-yl)-2-(3-(trifluoromethyl)phenylsulfonyl)propanamide] |
| 5840 | 130 | CC(C)(CCNC(=O)c1ccc(C(F)(F)F)cn1)S(=O)(=O)c1cccc(C(F)(F)F)c1 [Compound 470, N-(3-methyl-3-(3-(trifluoromethyl)phenylsulfonyl)butyl)-5-(trifluoromethyl)picolinamide] |
| 2050 | 190 | CC(C)(CNS(=O)(=O)c1cccc(C(F)(F)F)c1)S(=O)(=O)c1cccc(C(F)(F)F)c1 [Compound 495, N-(2-methyl-2-(3-(trifluoromethyl)phenylsulfonyl)propyl)-3-(trifluoromethyl) benzenesulfonamide] |
| 8300 | 380 | CC(C)(CCNC(=O)c1cn2ccc(C(F)(F)F)cc2n1)S(=O)(=O)c1cccc(C(F)(F)F)c1 [Compound 507, N-(3-methyl-3-(3-(trifluoromethyl)phenylsulfonyl)butyl)-7-(trifluoromethyl)imidazo[1,2-a]pyridine-2-carboxamide] |
| 5620 | 400 | CC(C)(CNC(=O)c1ccc(C(F)(F)F)cn1)S(=O)(=O)c1cccc(C(F)(F)F)c1 [Compound 476, N-(2-methyl-2-(3-(trifluoromethyl)phenylsulfonyl)propyl)-5-(trifluoromethyl)picolinamide] |
| 3690 | 960 | CC(C)(CNC(=O)c1ccc(F)c(Cl)c1)S(=O)(=O)c1cccc(C(F)(F)F)c1 [Compound 482, 3-chloro-4-fluoro-N-(2-methyl-2-(3-(trifluoromethyl)phenylsulfonyl)propyl) benzamide] |

Source: patent US20120245137A1 (Zalicus Pharmaceuticals Ltd., priority 2009, published 2012)
